Measured values published in US20230284620A1, “MIXTURES OF PYRIDAZINES AS HERBICIDAL COMPOSITIONS” (SYNGENTA CROP PROTECTION AG, priority 2020, published 2023).

Assays:
Experiment in all cases: Post-emergence glasshouse herbicide test, visual phytotoxicity
Type in all cases: in vivo
Settings in all cases: 13 days
[1] = test system: Amaranthus retroflexus (AMARE)
Method: (§1) Seeds of Setaria faberi (SETFA), Echinochloa crus-galli (ECHCG), Digitaria sanguinalis (DIGSA), Lolium perenne (LOLPE), Alopecurus myosuroides (ALOMY), Chenopodium album (CHEAL), Ipomoea hederacea (IPOHE), Stellaria media (STEME), Abutilon threophrasti (ABUTH) and Amaranthus retroflexus (AMARE) were sown in standard sterilised soil in pots. After cultivation for 8 days under controlled conditions in a glasshouse (at 24/19° C., day/night; 16 hours light; no humidity control), the plants were sprayed at 500 l/Ha with an aqueous spray solution derived from the formulation of the technical active ingredients in a small amount of acetone and a solvent and emulsifier mixture referred to as IF50 (11.12% Emulsogen EL360 TM+44.44% N-methylpyrrolidone+44.44% Dowanol DPM glycol ether), to create a 50 g/l solution which was then diluted using 0.2% Genapol X080 (CAS Number: 9043-30-5) as diluent to give the desired final dose of test compound.
(§2) Where active ingredients were applied as mixtures, aqueous spray solutions were prepared as above, containing both active ingredients.
(§3) The test plants were then grown under controlled conditions in a glasshouse (at 24/18° C., day/night; 15 hours light; 50% humidity) and watered twice daily. After 13 days, the test was evaluated visually for percentage phytotoxicity to the plants (where 100=total damage to plant; 0=no damage to plant; and NC=not captured) when compared to control untreated plants. Two to four replicates were applied for each treatment in a randomised block test design.
(§4) 22., E=X+Y−(X*Y/100), where • X=average percent phytotoxicity of herbicide A when applied at a certain rate • Y=average percent phytotoxicity using herbicide B when applied at a certain rate • E=the expected effect of the mixture of herbicides A and B as calculated from the Colby formula.

Stellaria media (STEME) = test system: Stellaria media (STEME)
Method: as §1, §2, §3, §4

[2] = test system: Abutilon threophrasti (ABUTH)
Method: as §1, §2, §3, §4

[3] = test system: Chenopodium album (CHEAL)
Method: as §1, §2, §3, §4

[4] = test system: Echinochloa crus-galli (ECHCG)
Method: as §1, §2, §3, §4

Lolium perenne (LOLPE) = test system: Lolium perenne (LOLPE)
Method: as §1, §2, §3, §4

[5] = test system: Alopecurus myosuroides (ALOMY)
Method: as §1, §2, §3, §4

Setaria faberi (SETFA) = test system: Setaria faberi (SETFA)
Method: as §1, §2, §3, §4

[6] = test system: Ipomoea hederacea (IPOHE)
Method: as §1, §2, §3, §4

[7] = test system: Digitaria sanguinalis (DIGSA)
Method: as §1, §2, §3, §4

CS(=O)(=O)c1ccc(C(=O)C2C(=O)CCCC2=O)c(Cl)c1OCCC1OCCO1 [B-II]
percentage phytotoxicity AMARE ([1]; 0.625 g/ha): 0%
percentage phytotoxicity AMARE ([1]; 1.25 g/ha): 13%
percentage phytotoxicity AMARE ([1]; 2.5 g/ha): 25%
percentage phytotoxicity AMARE ([1]; 5 g/ha): 53%
percentage phytotoxicity AMARE ([1]; 10 g/ha): 58%
percentage phytotoxicity STEME (Stellaria media (STEME); 0.625 g/ha): 0%
percentage phytotoxicity STEME (Stellaria media (STEME); 1.25 g/ha): 10%
percentage phytotoxicity STEME (Stellaria media (STEME); 2.5 g/ha): 28%
percentage phytotoxicity STEME (Stellaria media (STEME); 5 g/ha): 53%
percentage phytotoxicity STEME (Stellaria media (STEME); 10 g/ha): 70%
percentage phytotoxicity ABUTH ([2]; 0.625 g/ha): 0%
percentage phytotoxicity ABUTH ([2]; 1.25 g/ha): 40%
percentage phytotoxicity ABUTH ([2]; 2.5 g/ha): 43%
percentage phytotoxicity ABUTH ([2]; 5 g/ha): 58%
percentage phytotoxicity ABUTH ([2]; 10 g/ha): 70%
percentage phytotoxicity CHEAL ([3]; 0.625 g/ha): 5%
percentage phytotoxicity CHEAL ([3]; 1.25 g/ha): 15%
percentage phytotoxicity CHEAL ([3]; 2.5 g/ha): 30%
percentage phytotoxicity CHEAL ([3]; 5 g/ha): 55%
percentage phytotoxicity CHEAL ([3]; 10 g/ha): 65%
percentage phytotoxicity ECHCG ([4]; 0.625 g/ha): 0%
percentage phytotoxicity ECHCG ([4]; 1.25 g/ha): 5%
percentage phytotoxicity ECHCG ([4]; 2.5 g/ha): 0%
percentage phytotoxicity ECHCG ([4]; 5 g/ha): 8%
percentage phytotoxicity ECHCG ([4]; 10 g/ha): 5%
percentage phytotoxicity LOLPE (Lolium perenne (LOLPE); 0.625 g/ha): 0%
percentage phytotoxicity LOLPE (Lolium perenne (LOLPE); 1.25 g/ha): 5%
percentage phytotoxicity LOLPE (Lolium perenne (LOLPE); 2.5 g/ha): 0%
percentage phytotoxicity LOLPE (Lolium perenne (LOLPE); 5 g/ha): 5%
percentage phytotoxicity LOLPE (Lolium perenne (LOLPE); 10 g/ha): 0%
percentage phytotoxicity ALOMY ([5]; 0.625 g/ha): 0%
percentage phytotoxicity ALOMY ([5]; 1.25 g/ha): 3%
percentage phytotoxicity ALOMY ([5]; 2.5 g/ha): 0%
percentage phytotoxicity ALOMY ([5]; 5 g/ha): 5%
percentage phytotoxicity ALOMY ([5]; 10 g/ha): 0%
percentage phytotoxicity SETFA (Setaria faberi (SETFA); 0.625 g/ha): 0%
percentage phytotoxicity SETFA (Setaria faberi (SETFA); 1.25 g/ha): 3%
percentage phytotoxicity SETFA (Setaria faberi (SETFA); 2.5 g/ha): 0%
percentage phytotoxicity SETFA (Setaria faberi (SETFA); 5 g/ha): 5%
percentage phytotoxicity SETFA (Setaria faberi (SETFA); 10 g/ha): 0%
percentage phytotoxicity IPOHE ([6]; 0.625 g/ha): 5%
percentage phytotoxicity IPOHE ([6]; 1.25 g/ha): 15%
percentage phytotoxicity IPOHE ([6]; 2.5 g/ha): 20%
percentage phytotoxicity IPOHE ([6]; 5 g/ha): 45%
percentage phytotoxicity IPOHE ([6]; 10 g/ha): 55%
percentage phytotoxicity DIGSA ([7]; 0.625 g/ha): 0%
percentage phytotoxicity DIGSA ([7]; 1.25 g/ha): 5%
percentage phytotoxicity DIGSA ([7]; 2.5 g/ha): 0%
percentage phytotoxicity DIGSA ([7]; 5 g/ha): 10%
percentage phytotoxicity DIGSA ([7]; 10 g/ha): 3%

CCOC(=O)COc1ncccc1Oc1cc(-n2c(=O)cc(C(F)(F)F)n(C)c2=O)c(F)cc1Cl [B-V]
percentage phytotoxicity AMARE ([1]; 0.08 g/ha): 35%
percentage phytotoxicity AMARE ([1]; 0.16 g/ha): 100%
percentage phytotoxicity AMARE ([1]; 0.32 g/ha): 100%
percentage phytotoxicity AMARE ([1]; 0.625 g/ha): 100%
percentage phytotoxicity AMARE ([1]; 1.25 g/ha): 100%
percentage phytotoxicity STEME (Stellaria media (STEME); 0.08 g/ha): 15%
percentage phytotoxicity STEME (Stellaria media (STEME); 0.16 g/ha): 45%
percentage phytotoxicity STEME (Stellaria media (STEME); 0.32 g/ha): 85%
percentage phytotoxicity STEME (Stellaria media (STEME); 0.625 g/ha): 95%
percentage phytotoxicity STEME (Stellaria media (STEME); 1.25 g/ha): 100%
percentage phytotoxicity ABUTH ([2]; 0.08 g/ha): 23%
percentage phytotoxicity ABUTH ([2]; 0.16 g/ha): 75%
percentage phytotoxicity ABUTH ([2]; 0.32 g/ha): 85%
percentage phytotoxicity ABUTH ([2]; 0.625 g/ha): 100%
percentage phytotoxicity ABUTH ([2]; 1.25 g/ha): 100%
percentage phytotoxicity CHEAL ([3]; 0.08 g/ha): 8%
percentage phytotoxicity CHEAL ([3]; 0.16 g/ha): 63%
percentage phytotoxicity CHEAL ([3]; 0.32 g/ha): 78%
percentage phytotoxicity CHEAL ([3]; 0.625 g/ha): 80%
percentage phytotoxicity CHEAL ([3]; 1.25 g/ha): 95%
percentage phytotoxicity ECHCG ([4]; 0.08 g/ha): 0%
percentage phytotoxicity ECHCG ([4]; 0.16 g/ha): 0%
percentage phytotoxicity ECHCG ([4]; 0.32 g/ha): 10%
percentage phytotoxicity ECHCG ([4]; 0.625 g/ha): 8%
percentage phytotoxicity ECHCG ([4]; 1.25 g/ha): 20%
percentage phytotoxicity LOLPE (Lolium perenne (LOLPE); 0.08 g/ha): 0%
percentage phytotoxicity LOLPE (Lolium perenne (LOLPE); 0.16 g/ha): 5%
percentage phytotoxicity LOLPE (Lolium perenne (LOLPE); 0.32 g/ha): 38%
percentage phytotoxicity LOLPE (Lolium perenne (LOLPE); 0.625 g/ha): 30%
percentage phytotoxicity LOLPE (Lolium perenne (LOLPE); 1.25 g/ha): 60%
percentage phytotoxicity ALOMY ([5]; 0.08 g/ha): 0%
percentage phytotoxicity ALOMY ([5]; 0.16 g/ha): 5%
percentage phytotoxicity ALOMY ([5]; 0.32 g/ha): 50%
percentage phytotoxicity ALOMY ([5]; 0.625 g/ha): 55%
percentage phytotoxicity ALOMY ([5]; 1.25 g/ha): 78%
percentage phytotoxicity SETFA (Setaria faberi (SETFA); 0.08 g/ha): 0%
percentage phytotoxicity SETFA (Setaria faberi (SETFA); 0.16 g/ha): 0%
percentage phytotoxicity SETFA (Setaria faberi (SETFA); 0.32 g/ha): 20%
percentage phytotoxicity SETFA (Setaria faberi (SETFA); 0.625 g/ha): 20%
percentage phytotoxicity SETFA (Setaria faberi (SETFA); 1.25 g/ha): 33%
percentage phytotoxicity IPOHE ([6]; 0.08 g/ha): 23%
percentage phytotoxicity IPOHE ([6]; 0.16 g/ha): 50%
percentage phytotoxicity IPOHE ([6]; 0.32 g/ha): 55%
percentage phytotoxicity IPOHE ([6]; 0.625 g/ha): 93%
percentage phytotoxicity IPOHE ([6]; 1.25 g/ha): 88%
percentage phytotoxicity DIGSA ([7]; 0.08 g/ha): 0%
percentage phytotoxicity DIGSA ([7]; 0.16 g/ha): 13%
percentage phytotoxicity DIGSA ([7]; 0.32 g/ha): 40%
percentage phytotoxicity DIGSA ([7]; 0.625 g/ha): 50%
percentage phytotoxicity DIGSA ([7]; 1.25 g/ha): 68%
